Data set [1] deals with TGFα mice. The data set is described as follows: Short-term naltrexone therapy in TGFα-induced pulmonary fibrosis: total lung RNA gene expression. The data set is classed as in vivo. The following applies: 10 mg/kg or 50 mg/kg b.i.d. for one week, started after two weeks on Dox; vs vehicle. Here is the method:
FIG. 6: Naltrexone therapy attenuates ECM and proliferative gene expression in pulmonary fibrosis. (A) Experimental schemata of naltrexone therapy study in vivo. Three groups of mice on Dox for two weeks were treated with either vehicle or naltrexone (10 mg/kg or 50mg/kg bodyweight, b.i.d) and sacrificed after a week of treatment while continued on Dox. Total lung RNA was analyzed for the expression of: (B) ECM genes (FN1, Col5α, and Col6α) and (C) proliferation genes (Aurka, IL-6, and Calcb). One-Way ANOVA (N=4/group; *P<0.05).
(§1) To probe mechanisms of EGFR-mediated lung remodeling, we generated transgenic mice in which TGFα was conditionally overexpressed in the lung epithelium using the CCSP rtTA promoter. When doxycycline (Dox) was administered, overexpression of TGFα in the adult mice (N=4−5 mice/group) caused progressive and extensive adventitial, interstitial, and subpleural fibrosis. Several histological features of fibrosis in the TGFα model were found in the pathologic lesions of IPF, including subpleural fibrosis radiating into the adjoining interstitium and the differentiation of myofibroblasts (FIG. 3). Physiologically, the mice developed progressive cachexia and lung-function decline with gene expression profiles similar to human IPF. The proenkephalin A (PENK) gene that codes for several opioid peptides was elevated in fibrotic lungs during TGFα-induced pulmonary fibrosis (FIG. 4).
Naltrexone therapy attenuates ECM and proliferative gene expression in pulmonary fibrosis. […] Three groups of mice (N=4 mice/group) on Dox for two weeks were treated with either vehicle or naltrexone (10 mg/kg or 50 mg/kg bodyweight, b.i.d) and sacrificed after a week of treatment while continued on Dox. The down arrow represents initiation of the vehicle or drug treatment (at two weeks on Dox) and the horizontal arrows indicate the duration of vehicle or drug treatment (one week while continuing to administer Dox). […] The RNA from the three ECM genes decreased when treated with naltrexone. […] The RNA from the three proliferation genes decreased when treated with naltrexone.

Data set [2] concerns TGFα mice. The data set is described as follows: Naltrexone therapy in TGFα-induced pulmonary fibrosis: body weight, lung weight, lung function (FlexiVent). The data set is classed as in vivo. The note with it: 80 mg/kg b.i.d. for three weeks, started after three weeks on Dox, vs vehicle. The protocol:
FIG. 7: Naltrexone therapy attenuates body weight loss in pulmonary fibrosis. (A) Experimental schemata of naltrexone therapy study in vivo. Three groups of mice on Dox for three weeks were treated with either vehicle or naltrexone (80 mg/kg bodyweight, b.i.d) and then sacrificed after three weeks of treatment while continued on Dox. (B) The loss of body weight was attenuated with naltrexone therapy compared to vehicle treatment in TGFα mice. One-Way ANOVA (N=4−6/group; *P<0.05).
FIG. 8: Naltrexone therapy attenuates increase in lung weights in pulmonary fibrosis. Three groups of mice on Dox for three weeks were treated with either vehicle or naltrexone (80 mg/kg bodyweight, b.i.d) and then sacrificed after three weeks of treatment while continued on Dox. The increase in lung weights was attenuated with naltrexone therapy compared to vehicle treatment in TGFα mice. One-Way ANOVA (N=4−6/group; *P<0.05).
FIG. 9: Naltrexone therapy attenuates lung function decline in pulmonary fibrosis. Three groups of mice on Dox for three weeks were treated with either vehicle or naltrexone (80 mg/kg bodyweight, b.i.d) and then sacrificed after three weeks of treatment while continued on Dox. Decrease in the lung function (A,
Resistance; B, Compliance; C, Elastance) was attenuated with naltrexone therapy compared to vehicle treatment in TGFα mice. One-Way ANOVA (N=4−6/group; *P<0.05).
as §1
Naltrexone therapy attenuates body weight loss in pulmonary fibrosis. […] Three groups of mice (N=4−6 mice/group) were on Dox for three weeks, and were then treated with either vehicle or naltrexone (80 mg/kg bodyweight, b.i.d) along with Dox for another three weeks; six weeks after being on DOX and three weeks after being treated with vehicle or naltrexone, the mice were sacrificed. The down arrow represents initiation of the vehicle or naltrexone treatment and the horizontal arrows indicate the duration of the vehicle or naltrexone treatment (three weeks while continuing to administer Dox).
Naltrexone therapy attenuates increase in lung weights in pulmonary fibrosis. Mice (N=4−6 mice/group) were on Dox for three weeks, and were then treated with either vehicle or naltrexone (80 mg/kg bodyweight, b.i.d) along with Dox for another three weeks; six weeks after being on DOX and three weeks after being treated with vehicle or naltrexone, the mice were sacrificed (See, e.g., FIG. 7A). […] In TGFα mice, increases in lung weight are due to pulmonary fibrosis.
Naltrexone therapy attenuates lung function decline in pulmonary fibrosis. […]

In the next data set the test system is IPF fibroblasts. The data set can be described thus: Gene expression in primary fibroblasts isolated from fibrotic lesions of IPF lungs. The data set is classed as cell-based, human. The note with it: naltrexone 10 μM, 24 hrs, vs vehicle. Here is the method:
FIG. 10: Naltrexone treatment attenuates ECM and proliferation gene expression in IPF fibroblasts. Expression of ECM genes (FN1, Col3α, and αSMA) and proliferation gene (Aurka) was attenuated in IPF fibroblasts treated with naltrexone (10 μM) compared to vehicle treatment for 24 hrs in IPF fibroblasts. Unpaired t-test (N=3/group; *P<0.05).
We treated primary fibroblasts isolated from fibrotic lesions of IPF lungs. […] These findings are consistent with a mechanism of action for opioid receptor inhibitors (e.g., naltrexone) that influences (e.g., decreases) ECM and proliferation.

For data set [3] the following is noted: treatment of idiopathic pulmonary fibrosis; cited from earlier work.
The subject of a further data set is mice. The data set is described as follows: Mouse model of bleomycin-induced pulmonary fibrosis (repetitive intradermal bleomycin). The note with it: bleomycin 6 units per kg intradermally, 5 days a week for 4 wks; vs saline-treated controls. The data set is classed as in vivo. An excerpt:
FIG. 5: Mouse model of bleomycin-induced pulmonary fibrosis. Masson's trichrome-stained lung sections show extensive collagen deposition in mice treated intradermally with bleomycin (6 U/kg body weight; 5 days/week for 4 weeks) (B) compared to saline (A).
We developed an alternative mouse model of bleomycin-induced pulmonary fibrosis. For these experiments, we injected mice (N=5 mice/group) intradermally with bleomycin (6 units per kg body weight) for 5 days in a week for a total of 4 wks.

This is an account of results in patent US20190247373A1, “METHODS FOR TREATING FIBROSIS” (CHILDREN'S HOSPITAL MEDICAL CENTER, priority 2016, published 2019).

Take `O=C1CC[C@@]2(O)[C@H]3Cc4ccc(O)c5c4[C@@]2(CCN3CC2CC2)[C@H]1O5` [naltrexone, 17-(cyclopropylmethyl)-4,5α-epoxy-3,14-dihydroxymorphinan-6-one]: in the data set with TGFα mice [1], the “Total lung RNA expression of ECM gene Collagen alpha 1 V (Col5α)” value is “decreased”, the “Total lung RNA expression of ECM gene Collagen alpha 1 VI (Col6α)” value was “decreased”, the “Total lung RNA expression of ECM gene Fibronectin (FN1)” value is “decreased” and the “Total lung RNA expression of proliferation gene Aurora kinase A (Aurka)” value is “decreased”. In addition, in the data set on TGFα mice [1], the “Total lung RNA expression of proliferation gene Calcitonin Related Polypeptide Beta (Calcb)” value was “decreased” and the “Total lung RNA expression of proliferation gene Interleuken 6 (IL-6)” value was “decreased”. For the same compound, in the data set on TGFα mice [2] (FlexiVent), the “Dox-induced changes in lung function: Compliance” value is listed as “reversed”, the “Dox-induced changes in lung function: Elastance” value is listed as “reversed” and the “Dox-induced changes in lung function: Resistance” value was “reversed”. Moreover, in the data set with TGFα mice [2], the “Increase in lung weights” value is listed as “attenuated” and the “Loss of body weight” value is listed as “attenuated”. Further, in the data set on IPF fibroblasts, the “Expression of ECM gene alpha smooth-muscle actin (αSMA)” value is listed as “inhibited”, the “Expression of ECM gene fibronectin 1 (FN1)” value was “inhibited”, the “Expression of ECM gene procollagen 3α1 (Col3α)” value is recorded as “inhibited” and the “Expression of proliferation gene Aurora kinase A (AURKA)” value is “inhibited”.

Regarding `COC(=O)c1ccc2c(c1)NC(=O)/C2=C(\Nc1ccc(N(C)C(=O)CN2CCN(C)CC2)cc1)c1ccccc1` [nintedanib], the Effect on mortality result in data set [3] is given as “neither pirfenidone nor nintedanib had any effect”.

Consider `Cc1ccc(=O)n(-c2ccccc2)c1` [pirfenidone], for which, in data set [3], the Effect on mortality result is on record as “neither pirfenidone nor nintedanib had any effect” and the “Effect on respiratory symptoms” value was “no effect”.

bleomycin: in the data set with mice, the “Increase in airway resistance” value was “greater than two-fold” and the “Increase in lung hydroxyproline levels” value was “greater than two-fold”.
